Measurements reported in ChEMBL document CHEMBL3885881, “DrugMatrix”.

Species: Rattus norvegicus
Test: DrugMatrix - Regimen: Daily Repeat
Type: toxicity, organism-based, Sprague-Dawley
Design: regimen Daily Repeat, gender Male, age 6-8 weeks
Conditions: in vivo, iv, vehicle 100 % SALINE; for ABSOLUTE BASOPHIL / ABSOLUTE EOSINOPHIL / ABSOLUTE LYMPHOCYTE / ABSOLUTE MONOCYTE / ABSOLUTE SEGMENTED NEUTROPHIL / BASOPHIL / EOSINOPHIL / ERYTHROCYTE COUNT / HEMATOCRIT / HEMOGLOBIN / LEUKOCYTE COUNT / LYMPHOCYTE / MEAN CORPUSCULAR HEMOGLOBIN / MEAN CORPUSCULAR HEMOGLOBIN CONCENTRATION / MEAN CORPUSCULAR VOLUME / MONOCYTE / NEUTROPHIL / NUCLEATED RED BLOOD CELLS / PLATELET COUNT: tissue Blood; for ALANINE AMINOTRANSFERASE / ALBUMIN / ALKALINE PHOSPHATASE / ASPARTATE AMINOTRANSFERASE / BLOOD UREA NITROGEN / CARBON DIOXIDE / CHLORIDE / CHOLESTEROL / CREATINE PHOSPHOKINASE / CREATININE / GLUCOSE / LACTATE DEHYDROGENASE / LIPASE / PHOSPHORUS / POTASSIUM / SODIUM / TOTAL BILIRUBIN / TOTAL PROTEIN / URIC ACID: tissue Plasma
[1] = 100 mg/kg, 72 h, dose level Low, time 3 day
[2] = 100 mg/kg, 120 h, dose level Low, time 5 day
[3] = 755 mg/kg, 72 h, dose level High, time 3 day
[4] = 755 mg/kg, 120 h, dose level High, time 5 day

## O=S(=O)([O-])CCS.[Na+] [MESNA]
[1]
  ABSOLUTE BASOPHIL: 0 CELLS/uL
  ABSOLUTE EOSINOPHIL: 43.67 CELLS/uL
  ABSOLUTE LYMPHOCYTE: 13323 CELLS/uL
  ABSOLUTE MONOCYTE: 251.67 CELLS/uL
  ABSOLUTE SEGMENTED NEUTROPHIL: 848.33 CELLS/uL
  BASOPHIL: 0%
  EOSINOPHIL: 0.33%
  ERYTHROCYTE COUNT: 6 x10E6/uL
  HEMATOCRIT: 37.23%
  HEMOGLOBIN: 13.77 G/DL
  LEUKOCYTE COUNT: 14.47 x10E3/uL
  LYMPHOCYTE: 92%
  MEAN CORPUSCULAR HEMOGLOBIN: 22.97 pg
  MEAN CORPUSCULAR HEMOGLOBIN CONCENTRATION: 36.97 G/DL
  MEAN CORPUSCULAR VOLUME: 62.07 fL
  MONOCYTE: 1.67%
  NEUTROPHIL: 6%
  NUCLEATED RED BLOOD CELLS: 0.67 /100WBC
  PLATELET COUNT: 1218 x10E3/uL
  ALANINE AMINOTRANSFERASE: 53.67 u/L
  ALBUMIN: 4.3 G/DL
  ALKALINE PHOSPHATASE: 358.33 u/L
  ASPARTATE AMINOTRANSFERASE: 87 u/L
  BLOOD UREA NITROGEN: 15 mg/dL
  CARBON DIOXIDE: 26 mmol/L
  CHLORIDE: 102.33 MEQ/L
  CHOLESTEROL: 79.33 mg/dL
  CREATINE PHOSPHOKINASE: 501.33 u/L
  CREATININE: 0.29 mg/dL
  GLUCOSE: 159.67 mg/dL
  LACTATE DEHYDROGENASE: 166 u/L
  LIPASE: 12 u/L
  PHOSPHORUS: 12.7 mg/dL
  POTASSIUM: 6.86 MEQ/L
  SODIUM: 147.77 MEQ/L
  TOTAL BILIRUBIN: 0.2 mg/dL
  TOTAL PROTEIN: 6.23 G/DL
  URIC ACID: 1.63 mg/dL
[2]
  ABSOLUTE BASOPHIL: 0 CELLS/uL
  ABSOLUTE EOSINOPHIL: 120.33 CELLS/uL
  ABSOLUTE LYMPHOCYTE: 14708 CELLS/uL
  ABSOLUTE MONOCYTE: 625.67 CELLS/uL
  ABSOLUTE SEGMENTED NEUTROPHIL: 879.33 CELLS/uL
  BASOPHIL: 0%
  EOSINOPHIL: 0.67%
  ERYTHROCYTE COUNT: 5.55 x10E6/uL
  HEMATOCRIT: 36.7%
  HEMOGLOBIN: 13.53 G/DL
  LEUKOCYTE COUNT: 16.33 x10E3/uL
  LYMPHOCYTE: 90.33%
  MEAN CORPUSCULAR HEMOGLOBIN: 24.4 pg
  MEAN CORPUSCULAR HEMOGLOBIN CONCENTRATION: 36.9 G/DL
  MEAN CORPUSCULAR VOLUME: 66.07 fL
  MONOCYTE: 3.67%
  NEUTROPHIL: 5.33%
  NUCLEATED RED BLOOD CELLS: 0 /100WBC
  PLATELET COUNT: 1137 x10E3/uL
  ALANINE AMINOTRANSFERASE: 56.67 u/L
  ALBUMIN: 4.33 G/DL
  ALKALINE PHOSPHATASE: 375 u/L
  ASPARTATE AMINOTRANSFERASE: 83.67 u/L
  BLOOD UREA NITROGEN: 15.33 mg/dL
  CARBON DIOXIDE: 22.67 mmol/L
  CHLORIDE: 102.67 MEQ/L
  CHOLESTEROL: 87.33 mg/dL
  CREATINE PHOSPHOKINASE: 282.67 u/L
  CREATININE: 0.27 mg/dL
  GLUCOSE: 153.67 mg/dL
  LACTATE DEHYDROGENASE: 140.67 u/L
  LIPASE: 11 u/L
  PHOSPHORUS: 11.4 mg/dL
  POTASSIUM: 6.06 MEQ/L
  SODIUM: 146.67 MEQ/L
  TOTAL BILIRUBIN: 0.3 mg/dL
  TOTAL PROTEIN: 6.4 G/DL
  URIC ACID: 1.07 mg/dL
[3]
  ABSOLUTE BASOPHIL: 0 CELLS/uL
  ABSOLUTE EOSINOPHIL: 65.67 CELLS/uL
  ABSOLUTE LYMPHOCYTE: 13484.33 CELLS/uL
  ABSOLUTE MONOCYTE: 234.33 CELLS/uL
  ABSOLUTE SEGMENTED NEUTROPHIL: 1215.67 CELLS/uL
  BASOPHIL: 0%
  EOSINOPHIL: 0.33%
  ERYTHROCYTE COUNT: 5.37 x10E6/uL
  HEMATOCRIT: 34.63%
  HEMOGLOBIN: 12.87 G/DL
  LEUKOCYTE COUNT: 15 x10E3/uL
  LYMPHOCYTE: 90%
  MEAN CORPUSCULAR HEMOGLOBIN: 23.93 pg
  MEAN CORPUSCULAR HEMOGLOBIN CONCENTRATION: 37.17 G/DL
  MEAN CORPUSCULAR VOLUME: 64.43 fL
  MONOCYTE: 1.67%
  NEUTROPHIL: 8%
  NUCLEATED RED BLOOD CELLS: 0 /100WBC
  PLATELET COUNT: 960.33 x10E3/uL
  ALANINE AMINOTRANSFERASE: 55.33 u/L
  ALBUMIN: 4.07 G/DL
  ALKALINE PHOSPHATASE: 330.67 u/L
  ASPARTATE AMINOTRANSFERASE: 74.33 u/L
  BLOOD UREA NITROGEN: 17.33 mg/dL
  CARBON DIOXIDE: 25.67 mmol/L
  CHLORIDE: 102 MEQ/L
  CHOLESTEROL: 76 mg/dL
  CREATINE PHOSPHOKINASE: 342.67 u/L
  CREATININE: 0.21 mg/dL
  GLUCOSE: 165.33 mg/dL
  LACTATE DEHYDROGENASE: 152.67 u/L
  LIPASE: 9.67 u/L
  PHOSPHORUS: 12.4 mg/dL
  POTASSIUM: 6.83 MEQ/L
  SODIUM: 143.67 MEQ/L
  TOTAL BILIRUBIN: 0.13 mg/dL
  TOTAL PROTEIN: 6.23 G/DL
  URIC ACID: 1.8 mg/dL
[4]
  ABSOLUTE BASOPHIL: 0 CELLS/uL
  ABSOLUTE EOSINOPHIL: 0 CELLS/uL
  ABSOLUTE LYMPHOCYTE: 18795 CELLS/uL
  ABSOLUTE MONOCYTE: 498.33 CELLS/uL
  ABSOLUTE SEGMENTED NEUTROPHIL: 1040 CELLS/uL
  BASOPHIL: 0%
  EOSINOPHIL: 0%
  ERYTHROCYTE COUNT: 5.72 x10E6/uL
  HEMATOCRIT: 34.77%
  HEMOGLOBIN: 13.27 G/DL
  LEUKOCYTE COUNT: 20.33 x10E3/uL
  LYMPHOCYTE: 92.33%
  MEAN CORPUSCULAR HEMOGLOBIN: 23.2 pg
  MEAN CORPUSCULAR HEMOGLOBIN CONCENTRATION: 38.2 G/DL
  MEAN CORPUSCULAR VOLUME: 60.87 fL
  MONOCYTE: 2.67%
  NEUTROPHIL: 5%
  NUCLEATED RED BLOOD CELLS: 0 /100WBC
  PLATELET COUNT: 1209.33 x10E3/uL
  ALANINE AMINOTRANSFERASE: 54.33 u/L
  ALBUMIN: 4.23 G/DL
  ALKALINE PHOSPHATASE: 290 u/L
  ASPARTATE AMINOTRANSFERASE: 83.67 u/L
  BLOOD UREA NITROGEN: 19.33 mg/dL
  CARBON DIOXIDE: 24.33 mmol/L
  CHLORIDE: 105.67 MEQ/L
  CHOLESTEROL: 75.33 mg/dL
  CREATINE PHOSPHOKINASE: 517 u/L
  CREATININE: 0.21 mg/dL
  GLUCOSE: 155 mg/dL
  LACTATE DEHYDROGENASE: 338.33 u/L
  LIPASE: 9.67 u/L
  PHOSPHORUS: 12.17 mg/dL
  POTASSIUM: 7.45 MEQ/L
  SODIUM: 147 MEQ/L
  TOTAL BILIRUBIN: 0.17 mg/dL
  TOTAL PROTEIN: 6.23 G/DL
  URIC ACID: 2.07 mg/dL
